# Laboratory results taken from patent US20040185500A1, “Use of disease-associated gene” (priority 2001, published 2004).
# Molecular target: T1, human CLCA4-expressing CHO cells (Homo sapiens, UniProt Q14CN2)
# T1 construct: expressed in transfected cells
# T1 sequence (Q14CN2 22-919): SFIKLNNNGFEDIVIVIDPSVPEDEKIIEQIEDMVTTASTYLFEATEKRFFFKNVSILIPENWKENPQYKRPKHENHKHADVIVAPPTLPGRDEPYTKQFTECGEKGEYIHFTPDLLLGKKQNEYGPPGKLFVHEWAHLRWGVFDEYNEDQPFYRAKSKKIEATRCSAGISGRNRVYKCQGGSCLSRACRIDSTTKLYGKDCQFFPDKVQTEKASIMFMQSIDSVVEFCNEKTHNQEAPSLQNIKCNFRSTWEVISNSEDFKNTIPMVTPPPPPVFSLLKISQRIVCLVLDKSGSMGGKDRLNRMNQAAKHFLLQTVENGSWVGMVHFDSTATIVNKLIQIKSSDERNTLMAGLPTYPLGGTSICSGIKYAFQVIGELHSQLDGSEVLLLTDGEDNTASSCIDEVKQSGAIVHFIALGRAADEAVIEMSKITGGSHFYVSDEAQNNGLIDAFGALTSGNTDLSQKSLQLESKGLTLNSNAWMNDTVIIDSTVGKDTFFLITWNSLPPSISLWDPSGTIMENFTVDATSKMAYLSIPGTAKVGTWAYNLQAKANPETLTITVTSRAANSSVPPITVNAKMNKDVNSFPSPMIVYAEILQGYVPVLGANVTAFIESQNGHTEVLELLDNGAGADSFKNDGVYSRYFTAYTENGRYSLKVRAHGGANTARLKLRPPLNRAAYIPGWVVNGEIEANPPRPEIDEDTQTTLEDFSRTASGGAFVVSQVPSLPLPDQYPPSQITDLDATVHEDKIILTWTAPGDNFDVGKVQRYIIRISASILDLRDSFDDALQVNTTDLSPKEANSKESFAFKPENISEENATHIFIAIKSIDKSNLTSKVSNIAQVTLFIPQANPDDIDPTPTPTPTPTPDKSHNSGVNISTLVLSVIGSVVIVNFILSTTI
# Test: Ca2+ dependent Cl- channel activity, FLIPR Membrane Potential Assay, ionomycin stimulation
# Type: cell-based
# Conditions: 2 μM ionomycin, compound added, then cells left for 10 min at room temperature, FIG. 3
# Method: The ClCA4 expression plasmid pcDNA-hCLCA4 described in (2) above was introduced into CHO cells using FuGENE 6 (Roche Diagnostics) according to the manual accompanying it. The cells were subjected to selective culture in 1 mg/ml neomycin (G418) (Gibco BRL)-added MEM-α medium (Gibco BRL) for 10 days, and cells growing in this medium were obtained as CLCA4 expressing CHO cells. These CLCA4-expressing CHO cells and parent strain CHO cells were plated in 96-well black clear bottom plates (Corning) at 4×10^4 cells/well and cultured overnight. Cl^− channel activity was measured using FLIPR Membrane Potential Assay Kit (Molecular Device). A potential sensitive dye (Component A) diluted with 20 mM HEPES-containing HBSS buffer (Component B) was added to the plates at […] and reacted at 37° C. for 30 min. Then, the plates were set in FLIPR (Molecular Device) and, after addition of ionomycin (Wako Purechemical industries) at a final concentration of 2 μM, changes in fluorescence were observed as Cl^− channel activity. In both parent strain CHO cells and human CLCA4-expressing CHO cells, increase in fluorescence intensity was hardly recognized in the absence of stimulation. When stimulated with 2 μM ionomycin, increase in fluorescence intensity was observed only in human CLCA4-expressing CHO cells (FIG. 2). […]
smiles,measurement,value
O=C(O)c1cccnc1Nc1cccc(C(F)(F)F)c1 [niflumic acid],increase in fluorescence intensity caused by stimulation with ionomycin (Cl- channel activity),inhibited
